The values that follow come from publication PMC11206988, “Study on the Effect of Pharmaceutical Excipient PEG400 on the Pharmacokinetics of Baicalin in Cells Based on MRP2, MRP3, and BCRP Efflux Transporters” (Pharmaceutics, 2024).

For one data set, the system named is HepG2 cells. Kind of data set: Pharmacokinetic study of baicalin in HepG2 cells (intracellular concentrations by UPLC-MS/MS). The data set is classed as in vitro ADME, human. As to conditions: for AUC0–t increase compared with the control group: HepG2 cells. The method, then: (§1) The samples were quantified by UPLC-MS/MS, which consisted of a Dionex Ultimate 3000 UPLC system (Thermo Fisher Scientific, Waltham, MA, USA) and a triple quadrupole tandem mass spectrometer (Thermo Fisher Scientific, Waltham, MA, USA). The mass spectrometry was performed using an ESI ion source and in positive ion mode. The chromatograms are shown in Figure S1 of the Supplementary Materials. The samples were analyzed by a Waters XBridge BEH C18 column (2.1 × 100 mm). Mobile phase A consists of acetonitrile, while mobile phase B consists of water containing 0.1% formic acid. The elution program was as follows: B was initially 90%, 0 to 9 min B decreased from 90% to 27%, and 9.1 min to 12 min increased from 27% to 90% B. The flow rate of the mobile phase was 0.3 mL/min, the temperature of the automatic injector was 5 °C, and the injection volume was 10 μL. The m/z for BG and B6G was 447 → 271, for baicalein m/z 271 → 123, and for genistein (IS) m/z 271 → 153. Other mass spectrometry parameters included sheath gas (Arb) pressure, 20 psi, and auxiliary gas (Arb) pressure, 2 psi; source voltage, 4.8 KV, and capillary voltage, 2.5 KV; and ion-transfer-tube temperature, 375 °C, and atomization temperature, 275 °C.
(§2) HepG2 cells were cultured at a density of 1×10^5 cells/mL in 12-well plates for 24 h to facilitate the conduct of cellular pharmacokinetic experiments. The old medium was aspirated and discarded, the wells were rinsed twice with PBS, and 1 mL of 100 μM baicalin and baicalin + PEG400 (0.25%, 0.5%, and 1%) was added into 12-well plates to initiate the timer. The culture was terminated after 0.25 h, 0.5 h, 1 h, 2 h, 4 h, 6 h, 8 h, 10 h, 12 h, and 24 h, respectively. Upon reaching the designated time for administration, the cell culture medium was removed, and the wells were washed with 1 mL of cold PBS solution. Subsequently, 240 μL of ultra-pure water were added to each well, and the sample was stored at −80 °C until analysis. The sample was subjected to sonication in an ice bath for 10 min in order to lyse the cells, thereby enabling the determination of the accumulated drug concentration within the cells. Subsequently, 20 μL of the cell lysate was collected, and the protein concentration was quantified using a BCA kit for normalization.
(§3) After repeated freeze-thaw lysis, 100 μL of cell samples were taken, and 300 μL of 0.2% formic acid acetonitrile (containing 200 ng/mL genistein) were added to the vortex for 10 min to precipitate proteins and then centrifuged at 14,000 r/min for 10 min. Then the supernatant was blown dry under nitrogen at 40 °C and then reconstituted with 200 μL of methanol and centrifuged at 14,000 rpm for 10 min. The supernatant was subjected to UPLC-MS/MS analysis.

Test in data set [1]: as above
In kind it is in vitro ADME, human. The settings on record: human, intracellular; for AUC(0-t) at 100 μM / Cmax at 100 μM / half-life at 100 μM: HepG2 cells. Here is the method:
as §1, §2, §3

The mark [2] stands for this setting: HepG2 cells given 100 μM baicalin + H PEG400 (1%).
Where [3] appears, read: HepG2 cells given 100 μM baicalin + L PEG400 (0.25%).
The mark [4] stands for this setting: HepG2 cells given 100 μM baicalin + M PEG400 (0.5%).
Where [5] appears, read: HepG2 cells given 100 μM baicalin alone (group BG, control).

By Tmax is commonly meant the time at which the peak concentration occurs. Broadly, the AUC(0-t) is the area under the concentration-time curve up to a stated or last time point. By Cmax is commonly meant the maximum level reached in the sampled fluid or tissue. Usually half-life stands for how long it takes for the measured level to halve.

For `O=C(O)[C@H]1O[C@@H](Oc2c(O)cc3oc(-c4ccccc4)cc(=O)c3c2O)[C@H](O)[C@@H](O)[C@@H]1O` [B6G, Baicalein-6-O-β-D-glucuronide], in the data set on HepG2 cells (human), the Tmax turned out to be 6.00 h and the t1/2 worked out at 5.19 ± 2.37 h.
For `O=c1cc(-c2ccccc2)oc2cc(O)c(O)c(O)c12` [B, baicalein], the “AUC0–t increase compared with the control group” value in the data set with HepG2 cells (baicalin + high PEG400 (1%) vs baicalin alone) was 1.27 fold; with HepG2 cells (baicalin + low PEG400 (0.25%) vs baicalin alone), 1.26 fold; in the data set with HepG2 cells (baicalin + medium PEG400 (0.5%) vs baicalin alone), 1.23 fold. The AUC(0-t) at 100 μM was determined as 5640 ± 70 ng·h/mL in data set [1] (setting [2]); 5610 ± 90 ng·h/mL in data set [1] (setting [3]); 5480 ± 118 ng·h/mL in data set [1] (setting [4]); 4450 ± 60 ng·h/mL in data set [1] (HepG2 cells given 100 μM baicalin alone (group BG, control), 0.25-24 h). Moreover, the highest concentration (Cmax) at 100 μM in data set [1] (setting [2]) stood at 510 ± 10 ng/mL; in data set [1] (setting [3]), 550 ± 70 ng/mL; in data set [1] (setting [4]), 530 ± 60 ng/mL; in data set [1] (setting [5]) it was 350 ± 120 ng/mL. Besides, the half-life at 100 μM in data set [1] (setting [2]) was 6.43 ± 1.85 h; in data set [1] (setting [3]) it was 3.73 ± 0.54 h; in data set [1] (setting [4]), 9.4 ± 8.73 h; in data set [1] (setting [5]), 17.6 ± 7.99 h. Further, the Tmax at 100 μM in data set [1] (setting [5]) was 6 h.
